# US8598374B2, “GPR120 receptor agonists and uses thereof” (Metabolex, Inc, priority 2008, dated 2013)
# Target: T1, human GPR120 (Homo sapiens, UniProt Q5NUL3)
# T1 construct: Flag (DYKDDDDK) (N); host or cells: HEK293 cells co-expressing Gqi5
# T1 sequence (Q5NUL3 1-361): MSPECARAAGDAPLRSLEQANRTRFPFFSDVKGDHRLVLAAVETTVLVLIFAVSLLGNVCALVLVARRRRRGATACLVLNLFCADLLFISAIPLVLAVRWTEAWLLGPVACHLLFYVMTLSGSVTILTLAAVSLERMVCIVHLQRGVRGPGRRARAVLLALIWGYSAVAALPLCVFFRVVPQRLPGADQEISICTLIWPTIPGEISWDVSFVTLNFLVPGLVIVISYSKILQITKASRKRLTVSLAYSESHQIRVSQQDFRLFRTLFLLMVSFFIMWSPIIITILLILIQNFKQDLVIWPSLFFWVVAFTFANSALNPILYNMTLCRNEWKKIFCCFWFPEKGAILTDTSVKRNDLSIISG
# Assay: Intracellular Ca2+ assay (FLIPR Calcium 4, Flexstation) in human GPR120 stable cell line
# Assay type: cell-based
# Details: % activity at 2.5 μM compared to the maximal activity of the compound of Example 25 at 2.5 μM; HEK293 cells co-expressing Gqi5
# Outline: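 HEK293 cells co-expressing Gqi5 and stably expressing Flag-tagged human GPR120 were seeded at 70,000 cells per well in poly-D-lysine coated 96 well plates and loaded with FLIPR Calcium 4 dye for 50 minutes at 37° C. On a Flexstation, compound-induced fluorescence (excitation 485 nm, emission 525) was recorded for 90 seconds. Percent activity was expressed against a reference agonist's maximal activity at 2.5 μM, set as 100%.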
row,% Activity (Ex. 25 Reference Compound) [%],Compound
1,90.56,"C[C@H](Cc1ccc(OCc2cc(Cl)cc3c2OC(C)(C)C3)c(C(F)(F)F)c1)C(=O)O [Example 143, (R)-3-(4-((5-chloro-2,2-dimethyl-2,3-dihydrobenzofuran-7-yl)methoxy)-3-(trifluoromethyl)phenyl)-2-methylpropanoic acid]"
2,143.69,"[2H]C1([2H])c2cc(F)cc(COc3ccc(CC(C)C(=O)O)cc3)c2OC1(C)C (stereo not shown) [Example 145, 3-(4-((3,3-dideuterio-5-fluoro-2,2-dimethyl-2,3-dihydrobenzofuran-7-yl)methoxy)phenyl)-2-methylpropanoic acid]"
3,113.89,"CC(Cc1ccc(OCc2cc(Cl)cc3c2OCC3(C)C)cc1)C(=O)O (stereo not shown) [Example 148, 3-(4-((5-chloro-3,3-dimethyl-2,3-dihydrobenzofuran-7-yl)methoxy)phenyl)-2-methylpropanoic acid]"
4,106.81,"CC1(C)Cc2cc(F)cc(COc3ccc4c(c3)CCCC4CC(=O)O)c2O1 (stereo not shown) [Example 153, 2-(6-((5-fluoro-2,2-dimethyl-2,3-dihydrobenzofuran-7-yl)methoxy)-1,2,3,4-tetrahydronaphthalen-1-yl)acetic acid]"
5,148.87,"CC1(C)Cc2cc(Cl)cc(COc3ccc(C(C)(C)CC(=O)O)cc3)c2O1 [Example 156, 3-(4-((5-chloro-2,2-dimethyl-2,3-dihydrobenzofuran-7-yl)methoxy)phenyl)-3-methylbutanoic acid]"
6,164.79,"CC(Cc1ccc(OCc2cc(Cl)cc3c2OC2(CCCC2)C3)cc1)C(=O)O (stereo not shown) [Example 159, 3-(4-((5-chloro-3H-spiro[benzofuran-2,1′-cyclopentane]-7-yl)methoxy)phenyl)-2-methylpropanoic acid]"
7,172.13,"CC1(C)Cc2cc(F)cc(COc3ccc(CCCC(=O)O)cc3)c2O1 [Example 160, 4-(4-((5-fluoro-2,2-dimethyl-2,3-dihydrobenzofuran-7-yl)methoxy)phenyl)butanoic acid]"
8,154.48,"CC(Cc1ccc(OCc2cc(F)cc3c2OC2(CCCC2)C3)cc1)C(=O)O (stereo not shown) [Example 162, 3-(4-((5-fluoro-3H-spiro[benzofuran-2,1′-cyclopentane]-7-yl)methoxy)phenyl)-2-methylpropanoic acid]"
9,98.97,"CC(CCc1ccc(OCc2cc(F)cc3c2OC(C)(C)C3)cc1)C(=O)O (stereo not shown) [Example 171, 4-(4-((5-fluoro-2,2-dimethyl-2,3-dihydrobenzofuran-7-yl)methoxy)phenyl)-2-methylbutanoic acid]"
10,159.06,"COc1cc(CCC(=O)O)ccc1OCc1cc(F)cc2c1OC(C)(C)C2 [Example 173, 3-(4-((5-fluoro-2,2-dimethyl-2,3-dihydrobenzofuran-7-yl)methoxy)-3-methoxyphenyl)propanoic acid]"
11,152.44,"CC1(C)Cc2cc(F)cc(COc3ccc4c(c3)CC[C@H]4CC(=O)O)c2O1 [Example 175, (S)-2-(5-((5-fluoro-2,2-dimethyl-2,3-dihydrobenzofuran-7-yl)methoxy)-2,3-dihydro-1H-inden-1-yl)acetic acid]"
12,106,"CC1(C)Cc2cc(F)cc(COc3ccc4c(c3)CC[C@@H]4CC(=O)O)c2O1 [Example 178, (R)-2-(5-((5-fluoro-2,2-dimethyl-2,3-dihydrobenzofuran-7-yl)methoxy)-2,3-dihydro-1H-inden-1-yl)acetic acid]"
13,98.43,"CC(CC(=O)O)Cc1ccc(OCc2cc(F)cc3c2OC(C)(C)C3)cc1 (stereo not shown) [Example 182, 4-(4-((5-fluoro-2,2-dimethyl-2,3-dihydrobenzofuran-7-yl)methoxy)phenyl)-3-methylbutanoic acid]"
14,151.44,"CC1(C)Cc2cc(F)cc(COc3cc(Cl)c(CCC(=O)O)c(Cl)c3)c2O1 [Example 197, 3-(2,6-dichloro-4-((5-fluoro-2,2-dimethyl-2,3-dihydrobenzofuran-7-yl)methoxy)phenyl)propanoic acid]"
15,147.47,"Cc1c(CCC(=O)O)ccc(OCc2cc(F)cc3c2OC(C)(C)C3)c1C [Example 208, 3-(4-((5-fluoro-2,2-dimethyl-2,3-dihydrobenzofuran-7-yl)methoxy)-2,3-dimethylphenyl)propanoic acid]"
16,144.23,"CCc1c(CCC(=O)O)ccc(OCc2cc(F)cc3c2OC(C)(C)C3)c1F [Example 216, 3-(2-ethyl-3-fluoro-4-((5-fluoro-2,2-dimethyl-2,3-dihydrobenzofuran-7-yl)methoxy)phenyl)propanoic acid]"

# More lines, now with the values behind:
row,Compound,% Activity (Ex. 25 Reference Compound) [%]
1,"[2H]C1([2H])c2cc(Cl)cc(COc3ccc(CC(C)C(=O)O)cc3F)c2OC1(C)C (stereo not shown) [Example 146, 3-(4-((3,3-dideuterio-5-chloro-2,2-dimethyl-2,3-dihydrobenzofuran-7-yl)methoxy)-3-fluorophenyl)-2-methylpropanoic acid]",140.72
2,"[2H]C1([2H])c2cc(Cl)cc(COc3ccc(CC(C)C(=O)O)cc3C(F)(F)F)c2OC1(C)C (stereo not shown) [Example 147, 3-(4-((3,3-dideuterio-5-chloro-2,2-dimethyl-2,3-dihydrobenzofuran-7-yl)methoxy)-3-(trifluoromethyl)phenyl)-2-methylpropanoic acid]",138.65
3,"Cc1cc2cccc(COc3c(F)cc(CC(C)C(=O)O)cc3F)c2s1 (stereo not shown) [Example 151, 3-(3,5-difluoro-4-((2-methylbenzo[b]thiophen-7-yl)methoxy)phenyl)-2-methylpropanoic acid]",117.38
4,"Cc1cc2cccc(COc3ccc4c(c3)CCC4CC(=O)O)c2s1 (stereo not drawn) [Example 152, 2-(5-((2-methylbenzo[α]thiophen-7-yl)methoxy)-2,3-dihydro-1H-inden-1-yl)acetic acid]",83.81
5,"O=C(O)C1CC1c1ccc(OCc2cc(F)cc3c2OC2(CCCC2)C3)cc1 (stereo not shown) [Example 165, 2-(4-((5-fluoro-3H-spiro[benzofuran-2,1′-cyclopentane]-7-yl)methoxy)phenyl)cyclopropanecarboxylic acid]",158.08
6,"CC1(C)Cc2cc(Cl)cc(COc3ccc4c(c3)CC[C@H]4CC(=O)O)c2O1 [Example 176, (S)-2-(5-((5-chloro-2,2-dimethyl-2,3-dihydrobenzofuran-7-yl)methoxy)-2,3-dihydro-1H-inden-1-yl)acetic acid]",138.42
7,"CC1(C)Cc2cc(Cl)cc(COc3ccc4c(c3)CC[C@@H]4CC(=O)O)c2O1 [Example 179, (R)-2-(5-((5-chloro-2,2-dimethyl-2,3-dihydrobenzofuran-7-yl)methoxy)-2,3-dihydro-1H-inden-1-yl)acetic acid]",105.44
8,"CC1(C)Cc2cc(F)cc(COc3c(F)cc(CC4CC4C(=O)O)cc3F)c2O1 (stereo not shown) [Example 184, 2-(3,5-difluoro-4-((5-fluoro-2,2-dimethyl-2,3-dihydrobenzofuran-7-yl)methoxy)benzyl)cyclopropanecarboxylic acid]",97.04
9,"CC1(C)Cc2c(COc3ccc4c(c3)CC[C@@H]4CC(=O)O)cc(F)cc2O1 [Example 188, (R)-2-(5-((6-fluoro-2,2-dimethyl-2,3-dihydrobenzofuran-4-yl)methoxy)-2,3-dihydro-1H-inden-1-yl)acetic acid]",104.04
10,"COc1cc(OCc2cc(Cl)cc3c2OC2(CCCC2)C3)ccc1CCC(=O)O [Example 194, 3-(4-((5-chloro-3H-spiro[benzofuran-2,1′-cyclopentane]-7-yl)methoxy)-2-methoxyphenyl)propanoic acid]",148.21
11,"Cc1cc(OCc2cc(F)cc3c2OC(C)(C)C3)c(C)cc1CCC(=O)O [Example 206, 3-(4-((5-fluoro-2,2-dimethyl-2,3-dihydrobenzofuran-7-yl)methoxy)-2,5-dimethylphenyl)propanoic acid]",111.45
12,"Cc1c(CCC(=O)O)ccc(OCc2cc(Cl)cc3c2OC(C)(C)C3)c1C [Example 209, 3-(4-((5-chloro-2,2-dimethyl-2,3-dihydrobenzofuran-7-yl)methoxy)-2,3-dimethylphenyl)propanoic acid]",142.22
13,"Cc1cc(OCc2cc(F)cc3c2OC(C)(C)C3)c(F)cc1CCC(=O)O [Example 214, 3-(5-fluoro-4-((5-fluoro-2,2-dimethyl-2,3-dihydrobenzofuran-7-yl)methoxy)-2-methylphenyl)propanoic acid]",143.21
14,"CC1(C)Cc2cc(F)cc(COc3ccc(CCC(=O)O)c4c3CCCC4)c2O1 [Example 218, 3-(4-((5-fluoro-2,2-dimethyl-2,3-dihydrobenzofuran-7-yl)methoxy)-5,6,7,8-tetrahydronaphthalen-1-yl)propanoic acid]",114.48
15,"CCc1cc(OCc2cc(F)cc3c2OC(C)(C)C3)c(F)cc1CCC(=O)O [Example 220, 3-(2-ethyl-5-fluoro-4-((5-fluoro-2,2-dimethyl-2,3-dihydrobenzofuran-7-yl)methoxy)phenyl)propanoic acid]",115.86
